Results from patent US20210386789A1, “Enhancement of Mesenchymal Stem Cell Anti-inflammatory and Regenerative Activity Using mTOR Inhibitors” (BRAIN CANCER RESEARCH INSTITUTE, priority 2020, published 2021).

Test system: Bone marrow MSCs
Assay: HGF-1 production by bone marrow MSCs cultured with rapamycin (ELISA)
Type: cell-based
Conditions: bone marrow MSCs (ATCC), 96 well plates, indicated concentrations of rapamycin and time points, ELISA (R&D Systems), FIG. 1
Method: Bone marrow MSCs were purchased from American Type Culture Collection (hereinafter, “ATCC”) and grown in DMEM media with 10% fetal calf serum. Cells were allowed to expand to 100% confluence. The media was subsequently washed with phosphate buffered saline (PBS). Cells were plated on 96 well plates and cultured in the presence of the indicated concentrations of rapamycin for the indicated time points. Hepatocyte Growth Factor (HGF-1) expression was assessed using ELISA (R&D Systems).

Structure (SMILES): CO[C@H]1C[C@@H]2CC[C@@H](C)[C@@](O)(O2)C(=O)C(=O)N2CCCC[C@H]2C(=O)O[C@H]([C@H](C)C[C@@H]2CC[C@@H](O)[C@H](OC)C2)CC(=O)[C@H](C)/C=C(\C)[C@@H](O)[C@@H](OC)C(=O)[C@H](C)C[C@H](C)/C=C/C=C/C=C/1C [rapamycin, Rapamycin]
- Hepatocyte Growth Factor (HGF-1) expression / production: significant increase in production of HGF-1
